Our source for the IC50 values is patent US11161854B2, “Indazolyl-spiro[2.2]pentane-carbonitrile derivatives as LRRK2 inhibitors, pharmaceutical compositions, and uses thereof” (Merck Sharp & Dohme Corp., priority 2017, dated 2021).

Sequence of GST-tagged truncated human mutant G2019S LRRK2 (Q5S007 970-2527 G2019S): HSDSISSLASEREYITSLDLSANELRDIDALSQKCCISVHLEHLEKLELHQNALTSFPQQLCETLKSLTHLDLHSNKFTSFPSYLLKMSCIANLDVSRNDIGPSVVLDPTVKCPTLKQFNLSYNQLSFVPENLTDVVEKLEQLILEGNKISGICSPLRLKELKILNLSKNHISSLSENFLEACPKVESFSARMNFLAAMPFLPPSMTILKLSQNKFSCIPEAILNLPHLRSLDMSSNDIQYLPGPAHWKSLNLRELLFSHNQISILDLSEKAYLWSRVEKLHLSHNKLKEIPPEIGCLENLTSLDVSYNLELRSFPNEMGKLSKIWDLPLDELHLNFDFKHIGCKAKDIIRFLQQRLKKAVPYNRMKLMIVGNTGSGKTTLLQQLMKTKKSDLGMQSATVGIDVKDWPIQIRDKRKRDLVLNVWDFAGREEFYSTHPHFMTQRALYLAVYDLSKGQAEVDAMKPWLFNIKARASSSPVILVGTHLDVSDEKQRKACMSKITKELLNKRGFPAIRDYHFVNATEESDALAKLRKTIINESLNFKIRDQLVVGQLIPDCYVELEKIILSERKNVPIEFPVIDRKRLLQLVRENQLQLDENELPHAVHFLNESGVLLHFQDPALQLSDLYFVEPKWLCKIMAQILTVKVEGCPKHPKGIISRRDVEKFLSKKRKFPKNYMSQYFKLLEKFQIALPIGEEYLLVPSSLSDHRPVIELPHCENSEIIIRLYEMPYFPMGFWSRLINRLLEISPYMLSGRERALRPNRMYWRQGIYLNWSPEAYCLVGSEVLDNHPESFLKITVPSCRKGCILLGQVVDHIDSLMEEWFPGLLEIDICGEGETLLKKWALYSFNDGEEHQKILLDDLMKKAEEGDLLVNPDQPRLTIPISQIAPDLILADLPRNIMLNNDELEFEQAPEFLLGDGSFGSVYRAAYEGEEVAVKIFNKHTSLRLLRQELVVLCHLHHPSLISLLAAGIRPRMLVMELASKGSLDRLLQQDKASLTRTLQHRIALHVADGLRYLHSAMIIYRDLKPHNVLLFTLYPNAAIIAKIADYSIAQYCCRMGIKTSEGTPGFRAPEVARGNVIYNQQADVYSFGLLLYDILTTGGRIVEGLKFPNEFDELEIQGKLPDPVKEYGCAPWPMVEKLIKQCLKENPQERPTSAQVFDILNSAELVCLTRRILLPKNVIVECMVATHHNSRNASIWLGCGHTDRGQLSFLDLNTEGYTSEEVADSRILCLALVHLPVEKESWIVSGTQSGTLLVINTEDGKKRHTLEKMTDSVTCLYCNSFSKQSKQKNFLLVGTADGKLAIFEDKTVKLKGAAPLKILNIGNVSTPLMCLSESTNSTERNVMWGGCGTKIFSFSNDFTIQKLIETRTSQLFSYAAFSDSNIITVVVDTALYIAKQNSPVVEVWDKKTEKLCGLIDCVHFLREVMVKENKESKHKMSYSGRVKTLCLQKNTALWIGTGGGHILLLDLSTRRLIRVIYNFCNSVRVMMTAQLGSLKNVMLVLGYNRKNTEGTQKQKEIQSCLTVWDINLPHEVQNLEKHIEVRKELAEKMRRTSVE

The experiment concerns the target GST-tagged truncated human mutant G2019S LRRK2 (Homo sapiens (Human), UniProt Q5S007, G2019S). Put plainly: LRRK2 G2019S Km ATP LanthaScreen Assay. It is filed as biochemical. As to conditions: 134 μM ATP (Km ATP); fluorescein-labeled LRRKtide substrate; mean IC50 values. As to the method:
The IC50 values reported herein were measured as follows.
Biological Assay: LRRK2 Km ATP LanthaScreen™ Assay
The data presented for the Km ATP LanthaScreen™ Assay represents mean IC50 values based on several test results and may have reasonable deviations depending on the specific conditions and reagents used. Assays were performed in the presence of 134 μM ATP (Km ATP). Upon completion, the assay was stopped and phosphorylated substrate detected with a terbium (Tb)-labeled anti-pERM antibody (cat. no. PV4898). The compound dose response was prepared by diluting a 10 mM stock of compound to a maximum concentration of […] in 100% dimethylsulfoxide followed by custom fold serial dilution in dimethylsulfoxide nine times. Twenty nanoliters of each dilution was spotted via a Labcyte Echo onto a 384-well black-sided plate (Corning 3575) followed by 15 μl of a 1.25 nM enzyme solution in 1× assay buffer (50 mM Tris pH 8.5, 10 mM MgCl2, 0.01% Brij-35, 1 mM EGTA, 2 mM dithiothreitol, 0.05 mM sodium orthovanadate). Following a 15-minute incubation at room temperature, the kinase reaction was started with the addition of 5 μl of 400 nM fluorescein-labeled LRRKtide peptide substrate and 134 μM ATP solution in 1× assay buffer. The reaction was allowed to progress at ambient temperature for 90 minutes. The reaction was then stopped by the addition of 20 μl of TR-FRET Dilution Buffer (Life Technologies, Carlsbad, Calif.) containing 2 nM Tb-labeled anti-phospho LRRKtide antibody and 10 mM EDTA (Life Technologies, Carlsbad, Calif.). After an incubation of 1 hour at room temperature, the plate was read on an EnVision multimode plate reader (Perkin Elmer, Waltham, Mass.) with an excitation wavelength of 337 nm (Laser) and a reading emission at both 520 and 495 nm. […] Abase uses a 4 parameter (4P) logistic fit based on the Levenberg-Marquardt algorithm.
On to `COC1(C(C)(C)O)CCN(c2cc(-n3ncc4ccc([C@]5(C#N)CC56CC6)cc43)ncn2)C1` (single isomer, unassigned) [Example 3.10-2], for which the IC50 – broadly, the concentration that inhibits the measured activity by half – stood at 2.1 nM.

Turning to `CC(C)(O)C12CC(C1)N(c1cc(-n3ncc4ccc(C5(C#N)CC56CC6)cc43)cnn1)C2` (single isomer, unassigned) [Example 10.3-2, (R or S)-1-(1-(6-(4-(2-hydroxypropan-2-yl)-2-azabicyclo[2.1.1]hexan-2-yl)pyridazin-4-yl)-1H-indazol-6-yl)spiro[2.2]pentane-1-carbonitrile], inhibition was half-maximal at 15.4 nM (IC50).

In turn, `CC(C)(O)[C@@H]1CCN(c2cc(-n3ncc4cnc(C5(C#N)CC56CC6)cc43)ncn2)C1` (single isomer, unassigned) [Example 5.3-1] returned a half-inhibitory concentration (IC50) of 7.5 nM.

Molecule `CNc1nc(N2CC3(C(C)(C)O)CC2C3)cc(-n2ncc3ccc(C4(C#N)CC45CC5)cc32)n1` (single isomer, unassigned) [Example 2.7-1, 1-(1-(6-(4-(2-hydroxypropan-2-yl)-2-azabicyclo[2.1.1]hexan-2-yl)-2-(methylamino)pyrimidin-4-yl)-1H-indazol-6-yl)spiro[2.2]pentane-1-carbonitrile] gave an IC50 of 3 nM.

As for `CC(C)(O)[C@@H]1CCN(c2cc(-n3ncc4ccc(C5(C#N)CC56CC6)cc43)cnn2)C1` (single isomer, unassigned) [Example 10.4-1], the IC50 was 18.7 nM.

With `CC1CN(c2cc(-n3ncc4ccc([C@@]5(C#N)CC56CC6)cc43)ncn2)CC1C(C)(C)O` (single isomer, unassigned) [Example 3.6-3], the midpoint of inhibition, the IC50, lay at 9.8 nM.

On to `CCc1cc(-n2ncc3ccc([C@]4(C#N)CC45CC5)cc32)nc(C)n1` [Example 4.26], for which the IC50 was found to be 3.1 nM.

Turning to `Cc1nc(N2CC3(C(C)(C)O)CC2C3)cc(-n2ncc3c(F)cc(C4(C#N)CC45CC5)cc32)n1` (stereo not drawn) [Example 4.16], the half-inhibitory concentration (IC50) amounted to 0.6 nM.

In turn, `C[C@H]1CN(c2cc(-n3ncc4ccc([C@]5(C#N)CC56CC6)cc43)ncn2)CCN1C1CCOC1` (stereo partly drawn) [Example 3.8-4] showed an IC50 of 0.6 nM.

The molecule `CC(C)(O)[C@@H]1CCN(c2cc(-n3ncc4cnc(C5(C#N)CC56CC6)cc43)ncn2)C1` (single isomer, unassigned) [Example 5.3-2] showed an IC50 of 0.7 nM.

`C[C@H]1CN(c2cc(-n3ncc4ccc(C5(C#N)CC56CC6)cc43)ncn2)CCN1C1COC1` (single isomer, unassigned) [Example 3.1, (R or S)-1-(1-(6-((S)-3-methyl-4-(oxetan-3-yl)piperazin-1-yl)pyrimidin-4-yl)-1H-indazol-6-yl)spiro[2.2]pentane-1-carbonitrile] had a 50% inhibitory concentration (IC50) of 0.6 nM.

In turn, `CC(C)(O)[C@@H]1CCN(c2cc(-n3ncc4cc(F)c(C5(C#N)CC56CC6)cc43)ncn2)C1` (single isomer, unassigned) [Example 5.7-1] yielded an IC50 of 21.7 nM.

`C[C@H]1CN(c2cc(-n3ncc4ccc([C@]5(C#N)CC56CC6)cc43)cc(F)n2)CCN1C1COC1` [Example 6.4] registered a 50% inhibitory concentration (IC50) of 6.8 nM.

The molecule `Cc1nc(N2CC3(C(C)(C)O)CC2C3)cc(-n2ncc3cc(F)c(C4(C#N)CC45CC5)cc32)n1` (single isomer, unassigned) [Example 5.6-1, 1-(5-fluoro-1-(6-(4-(2-hydroxypropan-2-yl)-2-azabicyclo[2.1.1]hexan-2-yl)-2-methylpyrimidin-4-yl)-1H-indazol-6-yl)spiro[2.2]pentane-1-carbonitrile] had a half-inhibitory concentration (IC50) of 20.9 nM.

The molecule `COc1nc(N2C[C@@H](C)[C@@](C)(O)[C@@H](C)C2)cc(-n2ncc3ccc([C@]4(C#N)CC45CC5)cc32)n1` [Example 3.4] registered an IC50 of 1.5 nM.

Turning to `CC1C(C(C)(C)O)CCN1c1cc(-n2ncc3ccc([C@@]4(C#N)CC45CC5)cc32)ncn1` (single isomer, unassigned) [Example 3.5-5], the IC50 turned out to be 27.6 nM.

With `C[C@H]1CN(c2cc(-n3ncc4ccc([C@@]5(C#N)CC56CC6)cc43)ncn2)CCN1C1CCOC1` (single isomer, unassigned) [Example 3.8-1], it took 1.6 nM to reach half-maximal inhibition (IC50).

In turn, `Cc1cc(-n2ncc3ccc(C4(C#N)CC45CC5)cc32)cc(N2CC3(C(C)(C)O)CC2C3)n1` (single isomer, unassigned) [Example 7.3-2, (R or S)-1-(1-(2-(4-(2-hydroxypropan-2-yl)-2-azabicyclo[2.1.1]hexan-2-yl)-6-methylpyridin-4-yl)-1H-indazol-6-yl)spiro[2.2]pentane-1-carbonitrile] came in with a half-inhibitory concentration (IC50) of 4.6 nM.

`CC(C)(O)C12CC(C1)N(c1cc(-n3ncc4cnc(C5(C#N)CC56CC6)cc43)ncn1)C2` (single isomer, unassigned) [Example 5.2-1, 1-(1-(6-(4-(2-hydroxypropan-2-yl)-2-azabicyclo[2.1.1]hexan-2-yl)pyrimidin-4-yl)-1H-pyrazolo[4,3-c]pyridin-6-yl)spiro[2.2]pentane-1-carbonitrile] displayed an IC50 of 9.2 nM.

Turning to `CC1C(C(C)(C)O)CCN1c1cc(-n2ncc3ccc([C@]4(C#N)CC45CC5)cc32)ncn1` (single isomer, unassigned) [Example 3.5-8], the half-inhibitory concentration (IC50) worked out at 1.1 nM.

In turn, `CC(C)(O)[C@@H]1CCN(c2cc(-n3ncc4ccc(C5(C#N)CC56CC6)cc43)cnn2)C1` (single isomer, unassigned) [Example 10.4-2] had a 50% inhibitory concentration (IC50) of 2.7 nM.

Turning to `CC1C(C(C)(C)O)CCN1c1cc(-n2ncc3ccc([C@]4(C#N)CC45CC5)cc32)ncn1` (single isomer, unassigned) [Example 3.5-2], it took 31.6 nM to reach half-maximal inhibition (IC50).

`COCc1nc(C)cc(-n2ncc3ccc([C@]4(C#N)CC45CC5)cc32)n1` [Example 4.24] yielded an IC50 of 10.3 nM.

Regarding `CC(C)(O)C12CC(C1)N(c1cc(-n3ncc4cnc(C5(C#N)CC56CC6)cc43)ccn1)C2` (single isomer, unassigned) [Example 6.7-2, 1-(1-(2-(4-(2-hydroxypropan-2-yl)-2-azabicyclo[2.1.1]hexan-2-yl)pyridin-4-yl)-1H-pyrazolo[4,3-c]pyridin-6-yl)spiro[2.2]pentane-1-carbonitrile], the 50% inhibitory concentration (IC50) came to 7.8 nM.

`Cc1nc(N2CCN3CCOC[C@@H]3C2)cc(-n2ncc3ccc([C@]4(C#N)CC45CC5)cc32)n1` [Example 4.17]: the half-maximal inhibitory concentration (IC50) came to 0.6 nM.

`COCc1nc(N2C[C@@H](C)N(C3COC3)[C@@H](C)C2)cc(-n2ncc3ccc([C@]4(C#N)CC45CC5)cc32)n1` [Example 4.6]: the 50% inhibitory concentration (IC50) was 0.9 nM.

Turning to `C[C@@H]1CN(c2cc(-n3ncc4ccc([C@]5(C#N)CC56CC6)cc43)ncn2)C[C@H](C)[C@]1(C)O` [Example 3.2], the IC50 turned out to be 1.1 nM.

Molecule `N#C[C@@]1(c2ccc3cnn(-c4cc(C5CCN(C6COC6)CC5)ncn4)c3c2)CC12CC2` [Example 4.18] gave an IC50 of 18.7 nM.

In turn, `CC(C)(O)[C@@H]1CN(c2cc(-n3ncc4ccc([C@]5(C#N)CC56CC6)cc43)ncn2)C[C@@H]1F` [Example 4.12-2] registered an IC50 of 0.6 nM.

With `CC(C)(O)[C@H]1CN(c2cc(-n3ncc4ccc([C@]5(C#N)CC56CC6)cc43)ncn2)C[C@H]1F` [Example 4.12-1], the half-maximal inhibitory concentration (IC50) came out at 1.2 nM.

As to `CC(C)(O)C12CC(C1)N(c1cc(-n3ncc4c(F)cc(C5(C#N)CC56CC6)cc43)ncn1)C2` (single isomer, unassigned) [Example 4.15-1], it took 18.4 nM to reach half-maximal inhibition (IC50).

Turning to `Cc1nc(N2CC3(C(C)(C)O)CC2C3)cc(-n2ncc3cc(F)c(C4(C#N)CC45CC5)cc32)n1` (single isomer, unassigned) [Example 5.6-2, 1-(5-fluoro-1-(6-(4-(2-hydroxypropan-2-yl)-2-azabicyclo[2.1.1]hexan-2-yl)-2-methylpyrimidin-4-yl)-1H-indazol-6-yl)spiro[2.2]pentane-1-carbonitrile], the IC50 came to 1.3 nM.

In turn, `COCc1nc(N2C[C@@H](C)[C@@](C)(O)[C@@H](C)C2)cc(-n2ncc3ccc([C@]4(C#N)CC45CC5)cc32)n1` [Example 3.3] had an IC50 of 1 nM.

In turn, `C[C@H]1CN(c2cc(-n3ncc4ccc([C@]5(C#N)CC56CC6)cc43)ccn2)CCN1S(C)(=O)=O` [Example 6.5] registered an IC50 of 1.5 nM.

`CNc1nc(N2CC3(C(C)(C)O)CC2C3)cc(-n2ncc3ccc(C4(C#N)CC45CC5)cc32)n1` (single isomer, unassigned) [Example 2.7-2, 1-(1-(6-(4-(2-hydroxypropan-2-yl)-2-azabicyclo[2.1.1]hexan-2-yl)-2-(methylamino)pyrimidin-4-yl)-1H-indazol-6-yl)spiro[2.2]pentane-1-carbonitrile] came in with an IC50 of 0.6 nM.

`Cc1nc(N2CC3(C(C)(C)O)CC2C3)cc(-n2ncc3ccc(C4(C#N)CC45CC5)cc32)n1` (single isomer, unassigned) [Example 2.4-1, 1-(1-(6-(4-(2-hydroxypropan-2-yl)-2-azabicyclo[2.1.1]hexan-2-yl)-2-methylpyrimidin-4-yl)-1H-indazol-6-yl)spiro[2.2]pentane-1-carbonitrile]: inhibition was half-maximal at 2.1 nM (IC50).
